Measured values published in the NIST ThermoML archive (doi:10.1021/je100757w).
“And” between values parts separate entries of the source, which are not always exact repeats. Equal values may be shown once. ± gives the expanded uncertainty stated by the source.

Assay: xn = mol fraction of the nth substance listed
Conditions: for surface tension liquid-gas: Ring tensiometer; for mass density: 101.3 kPa, Liquid

COCCOCCOCCOC [2,5,8,11-tetraoxadodecane] + O
Conditions	mass density [kg/m3]	surface tension liquid-gas
298.15 K, x1 = 0.0012	–	53.35 ± 0.89 mN/m
298.15 K, x1 = 0.0024	–	51.27 ± 0.87 mN/m
298.15 K, x1 = 0.0029	–	49.07 ± 0.85 mN/m
298.15 K, x1 = 0.0036	–	48.59 ± 0.84 mN/m
298.15 K, x1 = 0.0043	–	47.6 ± 0.83 mN/m
298.15 K, x1 = 0.0173	1006.22 ± 0.27	–
298.15 K, x1 = 0.0206	–	40.6 ± 0.78 mN/m
298.15 K, x1 = 0.0375	–	38.88 ± 0.77 mN/m
298.15 K, x1 = 0.0695	–	36.2 ± 0.75 mN/m
298.15 K, x1 = 0.0905	–	33.99 ± 0.74 mN/m
298.15 K, x1 = 0.0914	1019.65 ± 0.32	–
298.15 K, x1 = 0.1223	–	33.06 ± 0.74 mN/m
298.15 K, x1 = 0.163	–	32.87 ± 0.74 mN/m
298.15 K, x1 = 0.1739	1017.24 ± 0.34	–
298.15 K, x1 = 0.2731	1009.97 ± 0.36	–
298.15 K, x1 = 0.2911	–	32.23 ± 0.74 mN/m
298.15 K, x1 = 0.3468	1004.7 ± 0.38	–
298.15 K, x1 = 0.3517	–	31.66 ± 0.73 mN/m
298.15 K, x1 = 0.4515	998.25 ± 0.44	–
298.15 K, x1 = 0.4658	–	31.16 ± 0.74 mN/m
298.15 K, x1 = 0.5727	992.4 ± 0.55	–
298.15 K, x1 = 0.583	–	30.5 ± 0.7 mN/m
298.15 K, x1 = 0.6451	989.7 ± 0.62	–
298.15 K, x1 = 0.659	–	30.09 ± 0.74 mN/m
298.15 K, x1 = 0.7279	–	29.54 ± 0.75 mN/m
298.15 K, x1 = 0.7766	985.98 ± 0.77	–
298.15 K, x1 = 0.821	–	29.05 ± 0.75 mN/m
298.15 K, x1 = 0.8679	984.02 ± 0.89	–
298.15 K, x1 = 0.8823	–	28.52 ± 0.75 mN/m
298.15 K, x1 = 0.8977	983.45 ± 0.93	–
298.15 K, x1 = 0.9461	–	28.04 ± 0.75 mN/m
298.15 K, x1 = 0.9699	981.95 ± 1	–
298.15 K, x1 = 1	981.23 ± 1.1	27.56 ± 0.75 mN/m
308.15 K, x1 = 0.0009	–	53.01 ± 0.87 mN/m
308.15 K, x1 = 0.0017	–	50.04 ± 0.85 mN/m
308.15 K, x1 = 0.0026	–	47.96 ± 0.84 mN/m
308.15 K, x1 = 0.0039	–	45.41 ± 0.82 mN/m
308.15 K, x1 = 0.0109	–	41.72 ± 0.79 mN/m
308.15 K, x1 = 0.0173	1004.32 ± 0.27	–
308.15 K, x1 = 0.0218	–	40.14 ± 0.78 mN/m
308.15 K, x1 = 0.0353	–	38.28 ± 0.77 mN/m
308.15 K, x1 = 0.0882	–	36.04 ± 0.75 mN/m
308.15 K, x1 = 0.0914	1016.26 ± 0.31	–
308.15 K, x1 = 0.1214	–	34.06 ± 0.74 mN/m
308.15 K, x1 = 0.1739	1010.56 ± 0.32	–
308.15 K, x1 = 0.1767	–	33.08 ± 0.74 mN/m
308.15 K, x1 = 0.2497	–	32.48 ± 0.74 mN/m and 31.82 ± 0.73 mN/m
308.15 K, x1 = 0.2731	1001.13 ± 0.33	–
308.15 K, x1 = 0.34	–	31.44 ± 0.73 mN/m
308.15 K, x1 = 0.3468	995.27 ± 0.38	–
308.15 K, x1 = 0.4141	–	30.89 ± 0.73 mN/m
308.15 K, x1 = 0.4515	988.66 ± 0.46	–
308.15 K, x1 = 0.5272	–	30.74 ± 0.74 mN/m
308.15 K, x1 = 0.5727	982.92 ± 0.57	–
308.15 K, x1 = 0.5837	–	30.15 ± 0.74 mN/m
308.15 K, x1 = 0.6451	980.17 ± 0.65	–
308.15 K, x1 = 0.7176	–	29.76 ± 0.75 mN/m
308.15 K, x1 = 0.7766	976.39 ± 0.8	–
308.15 K, x1 = 0.8234	–	29.38 ± 0.75 mN/m
308.15 K, x1 = 0.8679	974.51 ± 0.91	–
308.15 K, x1 = 0.8977	973.95 ± 0.95	–
308.15 K, x1 = 0.9458	–	28.74 ± 0.76 mN/m
308.15 K, x1 = 0.9699	972.46 ± 1.1	–
308.15 K, x1 = 1	971.71 ± 1.1	28.48 ± 0.76 mN/m
318.15 K, x1 = 0.0014	–	51.81 ± 0.87 mN/m
318.15 K, x1 = 0.0021	–	47.47 ± 0.84 mN/m
318.15 K, x1 = 0.0028	–	46.1 ± 0.84 mN/m
318.15 K, x1 = 0.0039	–	44.63 ± 0.81 mN/m
318.15 K, x1 = 0.01	–	41.37 ± 0.79 mN/m
318.15 K, x1 = 0.0173	998.53 ± 0.26	–
318.15 K, x1 = 0.0212	–	39.06 ± 0.77 mN/m
318.15 K, x1 = 0.034	–	37.85 ± 0.76 mN/m
318.15 K, x1 = 0.0543	–	35.26 ± 0.75 mN/m
318.15 K, x1 = 0.0791	–	32.67 ± 0.74 mN/m
318.15 K, x1 = 0.0849	–	32.5 ± 0.73 mN/m
318.15 K, x1 = 0.0914	1007.41 ± 0.29	–
318.15 K, x1 = 0.0917	–	32.42 ± 0.73 mN/m
318.15 K, x1 = 0.122	–	32.27 ± 0.73 mN/m
318.15 K, x1 = 0.1739	1001.45 ± 0.29	–
318.15 K, x1 = 0.1848	–	32.14 ± 0.73 mN/m
318.15 K, x1 = 0.2728	–	31.26 ± 0.73 mN/m
318.15 K, x1 = 0.2731	992.1 ± 0.35	–
318.15 K, x1 = 0.3289	–	31.05 ± 0.73 mN/m
318.15 K, x1 = 0.3468	986.06 ± 0.4	–
318.15 K, x1 = 0.3776	–	30.83 ± 0.73 mN/m
318.15 K, x1 = 0.4515	979.25 ± 0.49	–
318.15 K, x1 = 0.4688	–	30.3 ± 0.73 mN/m
318.15 K, x1 = 0.5727	973.34 ± 0.6	–
318.15 K, x1 = 0.6451	970.59 ± 0.67	–
318.15 K, x1 = 0.6611	–	29.59 ± 0.74 mN/m
318.15 K, x1 = 0.7234	–	29.4 ± 0.74 mN/m
318.15 K, x1 = 0.7766	966.82 ± 0.82	–
318.15 K, x1 = 0.8102	–	28.99 ± 0.75 mN/m
318.15 K, x1 = 0.8562	–	28.68 ± 0.75 mN/m
318.15 K, x1 = 0.8679	964.92 ± 0.93	–
318.15 K, x1 = 0.8915	–	28.3 ± 0.75 mN/m
318.15 K, x1 = 0.8977	964.34 ± 0.97	–
318.15 K, x1 = 0.9699	962.91 ± 1.1	–
318.15 K, x1 = 1	962.19 ± 1.1	27.83 ± 0.76 mN/m
